A short description of data set [1]: Bio-distribution and bio-stability of Compound 1 in mice (LC/MS of blood, urine and organs after IV injection). The data set is classed as in vivo. The conditions noted are these: mouse; for tissue uptake at 30 min: 1 µmol per animal. As to the method: Method: Compound 1 was dissolved in DMSO to achieve a 100 mM stock solution. This was then diluted with 1× PBS containing 3% Solutol to achieve a concentration of 5 mM. 200 μl of 5 mM Compound 1 solution was injected into the tail vein in mice animals under isofluorane anesthesia. The in vivo uptake was two hours.
Blood and urine samples were collected at 30, 60, 90 and 120 minutes. Samples were immediately placed on ice to prevent compound degradation. After blood and urine sampling were completed at 120 minutes, the mouse was sacrificed by cervical dislocation. The following whole organs were harvested within 30-40 minutes in the following order; lower GI, upper GI, spleen, pancreas, gall bladder, liver, heart, kidneys, lungs, about 0.3 gram of muscle from both legs, about 0.4 gram of skin at the back, the entire brain and about 0.4 gram of fat inside the abdomen.
(§1) To the samples were added a proportional amount of lysis buffer (about 5 ml/gram tissue) before the tissue was homogenized using a powered homogenizer, 50 μL of lysis buffer was added to the blood and urine samples, followed by briefly vortexing. 200 μl of organ homogenate was sampled into a 1.5 ml Eppendorf tube. All samples were heated at 100° C. for 2 minutes to denature the proteins and then placed in ice for 15 minutes. Then 40 μl of formic acid was added to the organ samples and 20 μl was added to the blood and urine samples. All tubes were vortexed to achieve complete mixing of sample with acid. Samples were then placed on ice for 15 minutes before being centrifuged at 13000 rpm for 15 minutes at 4° C. 30 μl of the supernatant was transferred to an HPLC vial for MSD analysis.
(§2) A standard curve with a wide range of Compound 1 concentrations was prepared using the same method described above for tissue lysate treatment. The corresponding peak of the compound was identified first in the standards. The areas of the peaks were measured and converted into a standard correlation curve for estimation of Compound 1 concentration in the samples. The amount of compound in each sample is expressed as % injected dose/gram tissue (% ID/g tissue).

For data set [2], the system named is Ls174T human colorectal adenocarcinoma. The experiment in a line: Cytotoxicity assay (MTT reduction), Ls174T cells. The class given is cell-based. The conditions noted are these: 0-10000 nM, 24 hours. As to the method:
(§3) Method: The assay is based on the ability of viable cells to reduce 3-[4,5-dimethylthiazol-2-yl]-2,5-diphenyl tetrazolium bromide to colored formazan crystals. Ls174T human colorectal adenocarcinoma, A172 human brain glioblastoma, MRC5 human normal lung fibroblast, and ALM12 mouse normal liver cell lines were selected for this study. Cells were cultured with different concentration of Compound 1 (0, 100, 500, 1000, 5000, 10000 nM) for 24 hours and then incubated with 0.5 mg/ml of 3-[4,5-dimethylthiazol-2-yl]-2,5-diphenyl tetrazolium bromide for 1 hour. Cells were lysed and formazan crystals were dissolved with 2-propanol for 1 hour and the optical density of the resultant colored 2-propanol was measured. The percentages of cell survival were calculated based on the optical densities.

The subject of data set [3] is ALM12 mouse normal liver cell lines. The experiment in a line: Cytotoxicity assay (MTT reduction), ALM12 cells. Conditions: ALM12, 0-10000 nM, 24 hours. The data set is classed as cell-based. As to the method:
as §3

Data set [4] deals with MRC5 human normal lung fibroblast. Kind of data set: Cytotoxicity assay (MTT reduction), MRC5 cells. The data set is classed as cell-based. Conditions: MRC5, 0-10000 nM, 24 hours. As to the method:
as §3

The nature of data set [5]: Plasma and urine pharmacology study of Compound 1 in rats (LC/MS after IV injection). The class given is in vivo. The conditions noted are these: rat. As to the method:
as §1, §2
Method: Compound 1 solution was prepared as described previously. One ml of 10 mM Compound 1 solution was injected intravenously (tail vein) into rats under isofluorane anesthesia. Blood and urine samples were collected before injection and at 15, 30, 60, 90 and 120 minutes after injection. Samples treatments and LC/MS measurement are the same as the mouse samples described in 1A.

For data set [6], the system named is A172 human brain glioblastoma. Kind of data set: Cytotoxicity assay (MTT reduction), A172 cells. The class given is cell-based. Conditions: A172, 0-10000 nM, 24 hours. As to the method: as §3

Entries after “also recorded” stand apart in the source; their conditions may differ.

As to `O=[N+]([O-])c1nccn1Cc1cn(C(CO)CF)nn1` (stereo not drawn) [Compound 1, 3-Fluoro-2-(4-((2-nitro-1H-imidazol-1-yl)methyl)-1H-1,2,3-triazol-1-yl)propan-1-ol], the tissue uptake at 30 min in data set [1] (IV tail vein 200 μl of 5 mM, urine at 30 minutes, read-out: urine level) is 95.6 %ID/g; in data set [1] (whole blood, IV tail vein 200 μl of 5 mM, blood at 30 minutes, read-out: blood level), 4.1 %ID/g; in data set [5] (10 µmol per animal, IV tail vein 1 ml of 10 mM, urine at 30 minute, read-out: urine level), 5.3 %ID/g; in data set [5] (whole blood, 10 µmol per animal, IV tail vein 1 ml of 10 mM, blood at 30 minutes, read-out: blood level), 0.67 %ID/g. For the same compound, the “blood clearance and urine excretion” value in data set [1] was “fast”. For the same compound, the figures for the “urine excretion index (averaged urine % ID/g divided by blood % ID/g at 120 minute)” value in data set [1] and in data set [5] were 88.69 and 36.62, respectively. The blood level in data set [1] (IV tail vein 200 μl of 5 mM, blood at 120 minutes) stood at 0.59%. Moreover, the “levels in gall bladder and GI system” value in data set [1] (organs harvested after 120 minutes) was “low”. The “cytotoxicity: numbers of viable cells vs untreated control cells” value in data set [2] was “no cytotoxic effects; also recorded: no difference”; in data set [3], “no difference”; in data set [4], “no cytotoxic effects; also recorded: no difference”; in data set [6], “no cytotoxic effects; also recorded: no difference”. Also, the “urine excretion and blood clearance” value in data set [5] is given as “fast”. Besides, the tissue uptake at 120 min in data set [5] (whole blood, 10 µmol per animal, IV tail vein 1 ml of 10 mM, blood at 120 minutes, read-out: blood level) was 0.15 %ID/g.

For the origin of these results see patent publication US7977361B2, “Nitro-imidazole hypoxia imaging agent” (Siemens Medical Solutions USA, Inc., priority 2007, dated 2011).
